Measurements as given in patent publication US10174044B2, “Fused pyridines as kinase inhibitors” (BRISTOL-MYERS SQUIBB COMPANY, priority 2015, dated 2019).

Each compound was assayed against GST-Xa-hAAK1 (Homo sapiens (Human), UniProt Q2M2I8) (assay: AAK1 Kinase Assay). Settings: bacterially expressed GST-Xa-hAAK1 3.5 nM; ATP 22 μM; fluoresceinated peptide substrate 1.5 μM; 3 hours at room temperature.
Type: biochemical
Procedure: The assays were performed in U-bottom 384-well plates. […] The reactions were initiated by the combination of bacterially expressed, GST-Xa-hAAK1 with substrates and test compounds. The reactions were incubated at room temperature for 3 hours and terminated by adding 60 μl of 35 mM EDTA buffer to each sample. The reactions were analyzed on the Caliper LabChip 3000 (Caliper, Hopkinton, Mass.) by electrophoretic separation of the fluorescent substrate and phosphorylated product. […] Compounds were dissolved at 10 mM in dimethylsulfoxide (DMSO) and evaluated at eleven concentrations. IC50 values were derived by non-linear regression analysis.

GST-Xa-hAAK1, sequence (Q2M2I8 whole entry): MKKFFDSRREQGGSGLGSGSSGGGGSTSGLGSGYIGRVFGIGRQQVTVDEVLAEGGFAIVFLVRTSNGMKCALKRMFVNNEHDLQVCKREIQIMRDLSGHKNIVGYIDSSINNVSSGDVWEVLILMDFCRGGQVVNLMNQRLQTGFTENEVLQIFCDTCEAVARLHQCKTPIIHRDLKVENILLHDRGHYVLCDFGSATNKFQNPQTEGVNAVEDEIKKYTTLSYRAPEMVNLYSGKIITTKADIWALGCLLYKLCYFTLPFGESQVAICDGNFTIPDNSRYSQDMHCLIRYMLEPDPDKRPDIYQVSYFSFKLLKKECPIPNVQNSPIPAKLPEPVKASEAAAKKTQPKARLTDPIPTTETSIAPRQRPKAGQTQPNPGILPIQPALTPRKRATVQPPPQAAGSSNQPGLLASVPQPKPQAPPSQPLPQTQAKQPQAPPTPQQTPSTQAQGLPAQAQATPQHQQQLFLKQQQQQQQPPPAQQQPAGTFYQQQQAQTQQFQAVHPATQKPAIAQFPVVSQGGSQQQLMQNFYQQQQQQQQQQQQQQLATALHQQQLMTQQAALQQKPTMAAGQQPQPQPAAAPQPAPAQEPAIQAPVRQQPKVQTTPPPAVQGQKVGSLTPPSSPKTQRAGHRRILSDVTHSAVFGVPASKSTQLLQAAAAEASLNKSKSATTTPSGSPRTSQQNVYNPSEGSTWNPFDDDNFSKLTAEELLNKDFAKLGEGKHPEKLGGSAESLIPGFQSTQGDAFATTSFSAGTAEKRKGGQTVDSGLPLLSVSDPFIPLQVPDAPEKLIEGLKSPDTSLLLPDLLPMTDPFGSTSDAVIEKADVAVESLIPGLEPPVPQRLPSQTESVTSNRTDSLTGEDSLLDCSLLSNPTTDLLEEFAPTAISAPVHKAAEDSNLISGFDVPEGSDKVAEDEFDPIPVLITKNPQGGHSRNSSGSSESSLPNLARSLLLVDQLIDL

SMILES | IC50 [nM]
CC(C)C[C@](C)(N)COc1ccc2c(c1)COc1cnc(NCC(F)(F)F)cc1-2 [Example 43, (S)-8-((2-amino-2,4-dimethylpentyl)oxy)-N-(2,2,2-trifluoroethyl)-6H-isochromeno[3,4-c]pyridin-2-amine] | 56
CC(C)C[C@@](C)(N)COc1ccc2c(c1)COc1cnc(NCC(F)(F)F)cc1-2 [Example 44, (R)-8-((2-amino-2,4-dimethylpentyl)oxy)-N-(2,2,2-trifluoroethyl)-6H-isochromeno[3,4-c]pyridin-2-amine] | 181
CCOC(=O)Nc1ncc2c(c1Cl)-c1ccc(OC[C@@](C)(N)CC(C)C)cc1CO2 [Example 47, (S)-ethyl (8-((2-amino-2,4-dimethylpentyl)oxy)-1-chloro-6H-isochromeno[3,4-c]pyridin-2-yl)carbamate] | 26
CC(C)C[C@](C)(N)COc1ccc2c(c1)COc1cnc(C(F)F)cc1-2 [Example 48, (S)-1-((2-(difluoromethyl)-6H-isochromeno[3,4-c]pyridin-8-yl)oxy)-2,4-dimethylpentan-2-amine] | 13
COC(=O)Nc1cc2c(cn1)OCc1cc(OC[C@@](C)(N)CC(C)C)c(F)cc1-2 [Example 49, (S)-methyl (8-((2-amino-2,4-dimethylpentyl)oxy)-9-fluoro-6H-isochromeno[3,4-c]pyridin-2-yl)carbamate] | 5.4
Cc1nccc2c1OCc1cc(OC[C@@](C)(N)CC(C)C)ccc1-2 [Example 50, (S)-2,4-dimethyl-1-((4-methyl-6H-isochromeno[3,4-c]pyridin-8-yl)oxy)pentan-2-amine] | 11
Cc1cc2c(cn1)OCc1cc(OC[C@@](C)(N)CC(C)C)ccc1-2 [Example 51, (S)-2,4-dimethyl-1-((2-methyl-6H-isochromeno[3,4-c]pyridin-8-yl)oxy)pentan-2-amine] | 121
CC(C)C[C@](C)(N)COc1ccc2c(c1)COc1cnc(N)cc1-2 [Example 53, (S)-8-((2-amino-2,4-dimethylpentyl)oxy)-6H-isochromeno[3,4-c]pyridin-2-amine] | 4.4
CC(C)C[C@](C)(N)COc1ccc2c(c1)COc1cnc(NC(=O)OC(C)C)cc1-2 [Example 54, (S)-isopropyl (8-((2-amino-2,4-dimethylpentyl)oxy)-6H-isochromeno[3,4-c]pyridin-2-yl)carbamate] | 2.1
CC(C)C[C@](C)(N)COc1ccc2c(c1)COc1cnc(NS(=O)(=O)C3CC3)cc1-2 [Example 56, (S)—N-(8-((2-amino-2,4-dimethylpentyl)oxy)-6H-isochromeno[3,4-c]pyridin-2-yl)cyclopropanesulfonamide] | 37
CC(C)C[C@](C)(N)COc1ccc2c(c1)COc1cnc(F)cc1-2 [Example 57, (S)-1-((2-fluoro-6H-isochromeno[3,4-c]pyridin-8-yl)oxy)-2,4-dimethylpentan-2-amine] | 34
COC(=O)Nc1ncc2c(c1Cl)-c1cc(F)c(OC[C@@](C)(N)CC(C)C)cc1CO2 [Example 58, (S)-methyl (8-((2-amino-2,4-dimethylpentyl)oxy)-1-chloro-9-fluoro-6H-isochromeno[3,4-c]pyridin-2-yl)carbamate] | 18
CC(C)C[C@](C)(N)COc1ccc2c(c1)COc1cnc(S(C)(=O)=O)cc1-2 [Example 59, (S)-2,4-dimethyl-1-((2-(methylsulfonyl)-6H-isochromeno[3,4-c]pyridin-8-yl)oxy)pentan-2-amine] | 184
CC(C)C[C@](C)(N)COc1ccc2c(c1Cl)COc1cnc(N)cc1-2 [Example 61, (S)-8-((2-amino-2,4-dimethylpentyl)oxy)-7-chloro-6H-isochromeno[3,4-c]pyridin-2-amine] | 0.41
COC(=O)Nc1nc(Cl)c2c(c1Cl)-c1ccc(OC[C@@](C)(N)CC(C)C)c(Cl)c1CO2 [Example 63, (S)-methyl (8-((2-amino-2,4-dimethylpentyl)oxy)-1,4,7-trichloro-6H-isochromeno[3,4-c]pyridin-2-yl)carbamate] | 15
COC(=O)Nc1nccc2c1OCc1cc(OC[C@@](C)(N)CC(C)C)ccc1-2 [Example 64, (S)-methyl (8-((2-amino-2,4-dimethylpentyl)oxy)-6H-isochromeno[3,4-c]pyridin-4-yl)carbamate] | 7.8

Next, values leading:

IC50 [nM] | SMILES
1.3 | CCOC(=O)Nc1cc2c(cn1)OCc1cc(OC[C@](C)(N)CC(C)C)ccc1-2 [Example 40, (R)-ethyl (8-((2-amino-2,4-dimethylpentyl)oxy)-6H-isochromeno[3,4-c]pyridin-2-yl)carbamate]
0.62 | CCOC(=O)Nc1cc2c(cn1)OCc1cc(OC[C@@](C)(N)CC(C)C)ccc1-2 [Example 41, (S)-ethyl (8-((2-amino-2,4-dimethylpentyl)oxy)-6H-isochromeno[3,4-c]pyridin-2-yl)carbamate]
88 | CC(C)CC(C)(N)COc1ccc2c(c1)COc1cnc(NCC(F)(F)F)cc1-2 (stereo not shown) [Example 42, 8-((2-amino-2,4-dimethylpentyl)oxy)-N-(2,2,2-trifluoroethyl)-6H-isochromeno[3,4-c]pyridin-2-amine]
0.91 | COC(=O)Nc1cc2c(cn1)OCc1c-2ccc(OC[C@@](C)(N)CC(C)C)c1F [Example 45, (S)-methyl (8-((2-amino-2,4-dimethylpentyl)oxy)-7-fluoro-6H-isochromeno[3,4-c]pyridin-2-yl)carbamate]
45 | CCOC(=O)Nc1nc(Cl)c2c(c1Cl)-c1ccc(OC[C@@](C)(N)CC(C)C)cc1CO2 [Example 46, (S)-ethyl (8-((2-amino-2,4-dimethylpentyl)oxy)-1,4-dichloro-6H-isochromeno[3,4-c]pyridin-2-yl)carbamate]
2.2 | CC(C)C[C@](C)(N)COc1ccc2c(c1)COc1c-2ccnc1Cl [Example 52, (S)-1-((4-chloro-6H-isochromeno[3,4-c]pyridin-8-yl)oxy)-2,4-dimethylpentan-2-amine]
123 | CC(C)C[C@](C)(N)COc1ccc2c(c1)COc1cnc(NS(C)(=O)=O)cc1-2 [Example 55, (S)—N-(8-((2-amino-2,4-dimethylpentyl)oxy)-6H-isochromeno[3,4-c]pyridin-2-yl)methanesulfonamide]
0.74 | CC(C)C[C@](C)(N)COc1ccc2c(c1)COc1c-2ccnc1N [Example 60, (S)-8-((2-amino-2,4-dimethylpentyl)oxy)-6H-isochromeno[3,4-c]pyridin-4-amine]
0.81 | COC(=O)Nc1cc2c(cn1)OCc1c-2ccc(OC[C@@](C)(N)CC(C)C)c1Cl [Example 62, (S)-methyl (8-((2-amino-2,4-dimethylpentyl)oxy)-7-chloro-6H-isochromeno[3,4-c]pyridin-2-yl)carbamate]
